In patent US20040132107A1, “Functional assay for g-protein-coupled receptors based on insect cells” (priority 2003, published 2004):
Blank lines part the entries; values can stand above or below the compound they belong to.

Experiments:
human 5-HT1A GPCR = target: T1, human 5-HT1A GPCR (Homo sapiens, UniProt P08908); details: FIG. 16
T1 sequence (P08908 1-422): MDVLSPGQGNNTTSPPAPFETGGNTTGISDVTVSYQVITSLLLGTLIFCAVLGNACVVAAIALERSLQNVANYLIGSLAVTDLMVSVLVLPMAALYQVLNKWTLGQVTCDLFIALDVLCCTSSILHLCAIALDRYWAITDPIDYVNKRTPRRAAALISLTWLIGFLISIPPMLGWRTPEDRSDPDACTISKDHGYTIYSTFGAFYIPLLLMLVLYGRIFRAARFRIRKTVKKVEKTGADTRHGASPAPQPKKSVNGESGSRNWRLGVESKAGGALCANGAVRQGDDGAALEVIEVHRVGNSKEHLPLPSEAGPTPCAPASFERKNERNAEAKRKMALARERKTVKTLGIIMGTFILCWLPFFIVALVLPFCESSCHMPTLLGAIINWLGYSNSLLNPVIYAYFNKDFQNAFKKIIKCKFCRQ

human Dopamine D1A GPCR = human Dopamine D1A GPCR (Homo sapiens, UniProt P21728); experiment: DADR insect-based assay cell lines (Sf9; Dopamine D1A, Galpha16, aequorin), fractional luminescence
Experimental: In one embodiment, the assay system of the invention was implemented using the human dopamine D1 (hDD1) GPCR, which is normally coupled to a Gs-type G protein.
To assay GPCR antagonists required a modified protocol. […] Light output was monitored for 75 seconds. […] Data analysis was performed as described above. An optional 10 second rocking step was added after each individual well was measured, to ensure that the insect-based assay cells arrayed in the plate stayed in suspension
Agonist and antagonist concentration-response curves were obtained by plotting graphs of A/(A+L) on the Y-axis versusLOG10 of ligand concentration (Molar) on the X-axis. Curve fitting was performed using the software package GraphPad Prism (GraphPad Software, Inc., San Diego, Calif., USA). The 3- or 4-Parameter Logistic equations were used for non-linear regression, and to acquire derived values (EC50 and Hill Slope).

[1] = target: T2, human Thromboxane A2 GPCR (Homo sapiens, UniProt P21731); experiment: TA2R insect-based assay cell lines (Sf9, transiently transfected), fractional luminescence
T2 construct: expressed in transfected cells; host or cells: Sf9, transiently transfected
T2 sequence (P21731 1-343): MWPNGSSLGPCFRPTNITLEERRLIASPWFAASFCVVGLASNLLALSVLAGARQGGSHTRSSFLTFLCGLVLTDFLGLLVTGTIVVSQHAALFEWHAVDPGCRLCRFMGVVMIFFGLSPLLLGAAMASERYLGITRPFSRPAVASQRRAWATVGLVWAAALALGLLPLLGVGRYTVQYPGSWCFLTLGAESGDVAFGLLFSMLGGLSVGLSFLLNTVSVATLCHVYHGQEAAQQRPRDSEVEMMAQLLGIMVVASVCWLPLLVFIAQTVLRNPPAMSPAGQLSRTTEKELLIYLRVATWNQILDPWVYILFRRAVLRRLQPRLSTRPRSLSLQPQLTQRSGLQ
Experimental: Light output was monitored for 70 seconds. […] Data analysis was performed as described above
Agonist and antagonist concentration-response curves were obtained by plotting graphs of A/(A+L) on the Y-axis versusLOG10 of ligand concentration (Molar) on the X-axis.Curve fitting was performed using the software package GraphPad Prism (GraphPad Software, Inc., San Diego, Calif., USA). The 3- or 4-Parameter Logistic equations were used for non-linear regression, and to acquire derived values (EC50 and Hill Slope).

human Histamine H1 GPCR = target: T3, human Histamine H1 GPCR (Homo sapiens, UniProt P35367); experiment: HH1R insect-based assay cell lines (Sf9, transiently transfected), fractional luminescence
T3 construct: expressed in transfected cells; host or cells: Sf9, transiently transfected

[2] = target: human beta2 Adrenergic receptor (Homo sapiens, UniProt P07550); experiment: B2AR insect-based assay cell lines (Sf9, transiently transfected), fractional luminescence; details: FIG. 17
human 5-HT2A GPCR = human 5-HT2A GPCR (Homo sapiens, UniProt P28223); experiment: 5H2A insect-based assay cell lines (Sf9, transiently transfected), fractional luminescence; details: increasing concentrations of agonist; FIG. 14
[3] = 100 microM, cells expressing all three assay components

T3 sequence (P35367 whole entry): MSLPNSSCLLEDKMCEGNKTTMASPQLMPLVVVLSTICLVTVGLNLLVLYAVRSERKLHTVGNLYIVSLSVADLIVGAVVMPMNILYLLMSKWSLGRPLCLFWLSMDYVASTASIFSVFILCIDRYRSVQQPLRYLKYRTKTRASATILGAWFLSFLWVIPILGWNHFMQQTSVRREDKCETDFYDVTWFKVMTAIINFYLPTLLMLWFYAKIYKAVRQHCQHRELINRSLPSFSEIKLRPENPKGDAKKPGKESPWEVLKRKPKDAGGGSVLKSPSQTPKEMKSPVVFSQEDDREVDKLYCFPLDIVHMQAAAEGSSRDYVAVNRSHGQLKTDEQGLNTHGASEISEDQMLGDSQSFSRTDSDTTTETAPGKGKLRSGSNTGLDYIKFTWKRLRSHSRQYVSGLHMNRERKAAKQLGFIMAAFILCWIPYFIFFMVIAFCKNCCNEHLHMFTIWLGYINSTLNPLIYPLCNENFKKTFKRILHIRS
Chain of human Dopamine D1A GPCR (P21728 whole entry): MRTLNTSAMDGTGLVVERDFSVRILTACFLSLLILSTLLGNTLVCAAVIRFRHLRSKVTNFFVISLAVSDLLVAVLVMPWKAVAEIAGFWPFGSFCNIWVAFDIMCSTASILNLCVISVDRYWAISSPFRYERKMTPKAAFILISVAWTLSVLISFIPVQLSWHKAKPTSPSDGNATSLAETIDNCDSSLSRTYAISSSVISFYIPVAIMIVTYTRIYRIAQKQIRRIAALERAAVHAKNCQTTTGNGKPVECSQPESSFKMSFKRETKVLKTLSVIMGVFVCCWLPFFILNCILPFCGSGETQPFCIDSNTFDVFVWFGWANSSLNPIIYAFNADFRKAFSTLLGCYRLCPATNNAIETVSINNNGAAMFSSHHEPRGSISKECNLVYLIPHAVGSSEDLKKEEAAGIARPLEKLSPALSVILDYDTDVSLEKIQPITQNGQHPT
Chain of human beta2 Adrenergic receptor (P07550 whole entry): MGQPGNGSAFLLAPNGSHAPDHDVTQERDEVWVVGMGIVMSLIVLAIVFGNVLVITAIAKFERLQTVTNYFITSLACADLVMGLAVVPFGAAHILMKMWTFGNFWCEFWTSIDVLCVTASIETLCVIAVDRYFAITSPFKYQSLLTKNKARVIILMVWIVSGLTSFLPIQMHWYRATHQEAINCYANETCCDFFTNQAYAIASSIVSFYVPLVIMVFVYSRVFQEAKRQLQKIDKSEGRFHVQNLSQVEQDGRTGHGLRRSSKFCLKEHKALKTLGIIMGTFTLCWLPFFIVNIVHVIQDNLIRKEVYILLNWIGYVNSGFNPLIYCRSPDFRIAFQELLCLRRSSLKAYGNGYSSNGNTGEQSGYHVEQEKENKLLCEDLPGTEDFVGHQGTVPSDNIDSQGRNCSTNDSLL
Chain of human 5-HT2A GPCR (P28223 whole entry): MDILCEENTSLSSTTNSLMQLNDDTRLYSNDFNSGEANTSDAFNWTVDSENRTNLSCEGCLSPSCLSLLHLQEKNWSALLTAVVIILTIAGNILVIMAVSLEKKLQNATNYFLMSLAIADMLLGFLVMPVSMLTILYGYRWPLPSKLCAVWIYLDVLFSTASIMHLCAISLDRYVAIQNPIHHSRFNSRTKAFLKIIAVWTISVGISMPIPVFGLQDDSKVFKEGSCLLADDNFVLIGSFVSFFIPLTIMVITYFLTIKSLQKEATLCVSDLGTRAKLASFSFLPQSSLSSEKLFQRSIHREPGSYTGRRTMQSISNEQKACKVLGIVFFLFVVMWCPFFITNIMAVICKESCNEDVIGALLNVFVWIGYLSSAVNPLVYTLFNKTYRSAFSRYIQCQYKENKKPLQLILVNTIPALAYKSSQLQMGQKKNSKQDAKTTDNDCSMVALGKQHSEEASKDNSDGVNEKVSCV

SMILES: CC(C)NCC(O)COc1cccc2ccccc12 (racemic) [DL-propranalol]
effect of antagonist pre-incubation on activation by serotonin (human 5-HT1A GPCR; antagonist 10 microM, then serotonin): prevents subsequent activation

SMILES: Oc1cc2c(cc1O)C(c1ccccc1)CNCC2 (stereo not shown) [SKF38393]
agonist concentration-activity curve (human Dopamine D1A GPCR; increasing concentrations of agonist, FIG. 5): characteristic sigmoidal agonist concentration-activity curve

block of U44069 agonist activity by pre-incubation with antagonist ([1]; FIG. 10): can be blocked
SMILES: O=C(O)CCC/C=C\C[C@@H]1[C@H](CNNC(=O)Nc2ccccc2)[C@H]2CC[C@@H]1O2 [SQ29,548]
antagonist concentration-activity curve ([1]; varying antagonist against fixed U44069 at 10 microM, FIG. 10): Characteristic sigmoidal antagonist concentration-activity curves

SMILES: CCCCC[C@H](O)/C=C/[C@H]1[C@@H]2CO[C@@H](C2)[C@@H]1C/C=C\CCCC(=O)O [U44069]
agonist concentration-activity curve ([1]; increasing concentrations of agonist, FIG. 9): characteristic sigmoidal agonist concentration-activity curve

SMILES: OCCN1CCN(CC/C=C2/c3ccccc3Sc3ccc(C(F)(F)F)cc32)CC1 [cis-Flupenthixol]
block of dopamine agonist activation by pre-incubation with antagonist (human Dopamine D1A GPCR; pre-incubation with antagonist, then dopamine, FIGS. 4 and 6): can be blocked | antagonist concentration-activity curve (human Dopamine D1A GPCR; varying antagonist against fixed dopamine at 100 microM, FIG. 6): Characteristic sigmoidal antagonist concentration-activity curves

response in the absence of the Histamine H1 receptor (human Histamine H1 GPCR): no response
SMILES: NCCc1c[nH]cn1 [histamine]
agonist concentration-activity curve (human Histamine H1 GPCR): characteristic sigmoidal agonist concentration-activity curve | fractional response to histamine in the absence of Galpha16 (human Histamine H1 GPCR): reduced in the absence of Galpha16, it is still significant

response of assay cells to agonist [2, 3]: respond | agonist response in the absence of Galpha16 ([2]; cells without Galpha16): reduced in magnitude
SMILES: NC[C@H](O)c1ccc(O)c(O)c1 [nor-epinephrine]

response of assay cells to agonist (human 5-HT1A GPCR; [3]): respond
SMILES: NCCc1c[nH]c2ccc(O)cc12 [serotonin]
agonist concentration-activity curve (human 5-HT2A GPCR): characteristic sigmoidal agonist concentration-activity curve

block of histamine agonist activity by pre-incubation with antagonist (human Histamine H1 GPCR; FIG. 12): can be blocked
SMILES: Cc1ccc(/C(=C\CN2CCCC2)c2ccccn2)cc1.Cl [triprolidone hydrochloride]
antagonist concentration-activity curve (human Histamine H1 GPCR; varying antagonist against fixed histamine at 100 microM, FIG. 12): Characteristic sigmoidal antagonist concentration-activity curves
